One series deals with VEGF. Put plainly: VEGF secretion in tumor cells. In kind it is cell-based. The note with it: FIG. 8.
In series [1] the test system is several different cancer cell lines. Description: Proliferation of several different cancer cell lines. The series is classed as cell-based.
In the next series the test system is Na/K-ATPase. The note with it: cited from earlier work.
The conditions of series [2]: mice.
The conditions of series [3]: cited from earlier work.
In series [4] the test system is Panc-1 human pancreatic xenograft. Put plainly: Panc-1 human pancreatic tumor xenograft in nude mice. The series is classed as in vivo. The note with it: Panc-1 xenografts in nude mice; FIGS. 16, 17, 22. As for the experimental part: The control animals received pumps containing vehicle (50% DMSO in DMEM). The mice treated with standard chemotherapy agent received intra-peritoneal injections of Gemcitabine at 40 mg/kg every 3 days for 4 treatments (q3d×4). Each data point represent average tumor weight (n=8) and error bars indicate SEM.
(Xenograft models place foreign cells or tissue in a host animal.)

Series [5] concerns HIF-1α. Description: HIF-1α induced under normoxia by PHD inhibitor L-mimosone in Hep3B cells, Western blot. In kind it is cell-based, human. As for the experimental part:
Abundance of HIF-1α and β-actin was determined by western blotting.

The conditions of series [6]: cited from earlier work. The source holds these as a separate data set.
Series [7] has as its system Caki-1 human renal cancer xenograft. The series is classed as in vivo. The settings on record: xenografted Caki-1 human renal tumors in nude mice; FIG. 23. An excerpt:
Female nude mice (nu/nu) between 5 and 6 weeks of age weighing approximately 20 g were implanted subcutaneously (s.c.) by trocar with fragments of human tumors harvested from s.c. grown tumors in nude mice hosts. […] Each group contains 8-10 mice, each of which was ear tagged and followed throughout the experiment.
The administration of drugs or controls began the day the animals were pair-matched (Day 1). […] Mice were weighed and tumor measurements were obtained using calipers twice weekly, starting Day 1. These tumor measurements were converted to mg tumor weight by standard formula, (W^2×L)/2. The experiment is terminated when the control group tumor size reached an average of about 1 gram. Upon termination, the mice were weighed, sacrificed and their tumors excised. The tumors were weighed and the mean tumor weight per group was calculated.

Series [8] concerns HIF-1α. Description: HIF-1α Western blot in human tumor cells under hypoxia. The series is classed as cell-based. In general terms: In western blotting, separated proteins are transferred to a membrane and probed.
Method: For HIF1-alpha Western blots, Hep3B cells were seeded in growth medium at a density of 7×10^6 cells per 100 mm dish. […] Samples were fractionated on 3-8% Tris-Acetate gel (Invitrogen NUPAGE system) by sodium dodecyl sulfate (SDS)-polyacrylamide gel electropherosis and transferred onto nitrocellulose membrane. […] Anti-Beta-actin monoclonal antibody (Abcam, ab6276-100) was used at a 1:5000 dilution with a 30-minute incubation at room temperature.
The cells were placed in hypoxic conditions for 4 hours for HIF1-alpha accumulation.
The cells were lysed and proteins were resolved by SDS-PAGE and transferred to a nylon membrane. The membrane was immunoblotted with anti-HIF-1α and anti-HIF1β MAb, and anti-beta-actin antibodies.
HIF-1α and β-actin protein level was determined by western blotting.
A further series concerns A549 Sentinel Line. Put plainly: Sentinel Line beta-galactosidase reporter assay (FACS, FDG loading). In kind it is cell-based, human. The settings on record: 40 hrs; mitoxantrone 8 nM, paclitaxel 1.5 nM, carboplatin 15 μM, Iressa 4 μM. As for the experimental part:
The expression level of beta-galactosidase gene in sentinel lines was determined by using a fluorescent substrate fluorescein di-β-D-Galactopyranside (FDG, Marker Gene Tech, #M0250) introduced into cells by hypotonic shock. Cleavage by beta-galactosidase results in the production of free fluorescein, which is unable to cross the plasma membrane and is trapped inside the beta-gal positive cells. Briefly, the cells to be analyzed are trypsinized, and resuspended in PBS containing 2 mM FDG (diluted from a 10 mM stock prepared in 8:1:1 mixture of water:ethanol:DMSO). The cells were then shocked for 4 minutes at 37° C. and transferred to FACS tubes containing cold 1×PBS on ice. Samples were kept on ice for 30 minutes and analyzed by FACS in FL1 channel.
Sentinel Line cells with beta-galactosidase reporter gene were plated at 1×10^5 cells/10 cm dish. […] After 40 hrs, the cells were trypsinized and the expression level of reporter gene was determined by FDG loading.
The reporter activity was measured by FACS analysis.
In general terms: Reporter assays use an easily measured gene product as a stand-in for the process of interest.

“Also recorded” adds a separate entry of the source.

Regarding `C[C@@H]1O[C@@H](O[C@H]2C[C@@H](O)[C@]3(CO)[C@H]4[C@H](O)C[C@]5(C)[C@@H](C6=CC(=O)OC6)CC[C@]5(O)[C@@H]4CC[C@]3(O)C2)[C@H](O)[C@H](O)[C@H]1O` [BNC-1, ouabain], the “secretion of the angiogenesis factor VEGF” value in the series on VEGF was “directly or indirectly inhibits”. The “decrease of concentration effective for inhibiting proliferation of cancer cells” value in series [1] (combination with steroid signal modulator (Casodex)) is 5 fold. Further, in [1] (proliferation of cancer cell lines, read-out: IC50 across several different cancer cell lines), the IC50 – broadly, the concentration that inhibits the measured activity by half – lay within 0.08 to 0.3 µM. In the series on Na/K-ATPase, the “order of Na/K-ATPase-inhibition” value is recorded as “Ouabain<Digoxin<Proscillaridin”.

Consider `C[C@@H]1OC(OC2C=C3CCC4C(CC[C@]5(C)[C@@H](c6ccc(=O)oc6)CC[C@]45O)[C@@]3(C)CC2)[C@H](O)[C@H](O)[C@H]1O` (stereo partly drawn) [BNC-4, proscillaridin], for which the “secretion of the angiogenesis factor VEGF” value with VEGF is on record as “directly or indirectly inhibits”. Moreover, the “serum level corresponding to maximum toxic dose (MTD)” value in [2] is “about 518 (±121) ng/ml”. Further, in series [2] (steady state delivery), the “toxic serum concentration at day 1” value is “about 518±121 ng/ml”. The “time of third plasma concentration peak” value in series [3] (after dosing) is recorded as “about 10 hours”. Besides, in [3] (in vivo), the “influence of impaired kidney function on clearance” value is listed as “no influence on clearance”. Further, the tumor growth result in [4] and in [7] was “significantly reduce tumor growth” in each case. Besides, the HIF-1α accumulation entry is “blocks HIF-1α induction; also recorded: eliminated HIF-1α accumulation” in the series with HIF-1α [5] (200 μM L-mimosone for 18 h) and “did not appear to have an effect” with HIF-1α [5] (L-mimosone, low concentration tested). Also, the “order of Na/K-ATPase-inhibition” value in the series with Na/K-ATPase is recorded as “Ouabain<Digoxin<Proscillaridin”. In addition, the “patients taken off treatment because of negative side effects” value in series [6] (1067 patients observed for up to 3 years) is reported as 0.7%. In series [6] (healthy individuals), the “doses producing typical cardiac glycoside intoxication symptoms” value is listed as “above 4 mg p.o./d”. Moreover, the “average level of side effects (nausea, seasickness, headache, vomiting, stomach cramps, diarrhea) in clinical reports” value in series [6] (human, in vivo) is recorded as 5%. Moreover, the “dose taken without any negative side effects” value in [6] (long-term medication of cardiac illnesses) is recorded as “up to 1.5 mg per day”. Also, the “reported cases in which therapy could be resumed after a brief hiatus” value in series [6] (review of 47 clinical studies) is above 95%. The HIF-1α expression entry with HIF-1α [8] (0.1 μM) and in the series on HIF-1α [8] (1 μM) was “completely inhibits HIF-1α expression” each time.

With `C[C@@H]1OC(OC2C=C3CCC4C5=CC[C@H](c6ccc(=O)oc6)[C@@]5(C)CCC4[C@@]3(C)CC2)[C@H](O)[C@H](O)[C@H]1O` (stereo partly drawn) [BNC-151], the HIF-1α expression result with HIF-1α [8] (1 μM) was “Significant inhibition of HIF-1α expression”.

Take `N.N.O=C([O-])C1(C(=O)[O-])CCC1.[Pt+2]` [Carboplatin]: in the series with A549 Sentinel Line, the “cell death and reporter activity in Sentinel Lines” value (from here on “cell death and reporter activity”) is “increases in cell death and reporter activity”.

As for `C[C@H]1O[C@@H](O[C@H]2[C@@H](O)C[C@H](O[C@H]3[C@@H](O)C[C@H](O[C@H]4CC[C@@]5(C)[C@H](CC[C@@H]6[C@@H]5C[C@@H](O)[C@]5(C)[C@@H](C7=CC(=O)OC7)CC[C@]65O)C4)O[C@@H]3C)O[C@@H]2C)C[C@H](O)[C@@H]1O` [Digoxin], the “order of Na/K-ATPase-inhibition” value in the series with Na/K-ATPase is “Ouabain<Digoxin<Proscillaridin”.

Consider `COc1cc2ncnc(Nc3ccc(F)c(Cl)c3)c2cc1OCCCN1CCOCC1` [Iressa], for which the “cell death and reporter activity” value in the series on A549 Sentinel Line is reported as “reduction in reporter activity”.

On to `O=C1c2c(O)ccc(O)c2C(=O)c2c(NCCNCCO)ccc(NCCNCCO)c21` [mitoxanthrone, mitoxantrone], for which the “cell death and reporter activity” value in the series with A549 Sentinel Line was “increases in cell death and reporter activity”.

In the case of `CC(=O)O[C@H]1C(=O)[C@@]2(C)[C@H]([C@H](OC(=O)c3ccccc3)[C@]3(O)C[C@H](OC(=O)[C@H](O)[C@@H](NC(=O)c4ccccc4)c4ccccc4)C(C)=C1C3(C)C)[C@]1(OC(C)=O)CO[C@@H]1C[C@@H]2O` [paclitaxel], the “cell death and reporter activity” value with A549 Sentinel Line was “increases in cell death and reporter activity”.

The record behind these values is patent US20080027010A1, “Treatment of refractory cancers using Na+/K+-ATPase inhibitors” (Bionaut Pharmaceuticals, Inc., priority 2004, published 2008).
